Source: patent publication US11712434B2, “Compound having anti-cancer effect, and preparation method therefor and use thereof” (3D MEDICINES (BEIJING) CO., LTD., priority 2016, dated 2023)

Key:
Assay in all cases: Cell proliferation assay (Alamar Blue)
Assay type in all cases: cell-based
[1] = test system: HLE; details: Homo sapiens, 144 h; HLE liver cancer cell line; 6 days culture
Method in brief: (§1)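 Compounds were added 4 h after seeding and left on the cells for 6 days. Nine concentrations spanning 3.16-fold dilutions from a top of 100 or 30 μM were run in duplicate. Fluorescence after AlamarBlue gave inhibition rates, fitted for IC50.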

[2] = test system: NCI-H1703; details: Homo sapiens, 144 h; NCI-H1703 (lung cancer cells); 6 days culture
Method in brief: as §1

[3] = test system: SNU475; details: Homo sapiens, SNU-475, 144 h; SNU475 liver cancer cell line; 6 days culture
Method in brief: as §1

[4] = test system: SNU387; details: Homo sapiens, SNU-387, 144 h; SNU387 liver cancer cell line; 6 days culture
Method in brief: as §1

[5] = test system: NCI-H1648; details: Homo sapiens, 144 h; NCI-H1648 tumor cell line; 6 days culture
Method in brief: as §1

[6] = test system: NCI-H526; details: Homo sapiens, 144 h; NCI-H526 tumor cell line; 6 days culture
Method in brief: as §1

[7] = test system: HEPG2; details: Homo sapiens, 144 h; HEPG2 liver cancer cell line; 6 days culture
Method in brief: as §1

[8] = test system: Li-7; details: 144 h; Li-7 liver cancer cell line; 6 days culture
Method in brief: as §1

[9] = test system: KM12; details: Homo sapiens, 144 h; KM12 tumor cell line; 6 days culture
Method in brief: as §1

[10] = test system: HT55; details: Homo sapiens, 144 h; HT55 tumor cell line; 6 days culture
Method in brief: as §1

[11] = test system: JHH2; details: JHH-2, 144 h; JHH2 liver cancer cell line; 6 days culture
Method in brief: as §1

[12] = test system: CCRF-CEM; details: Homo sapiens, 144 h; CCRF-CEM tumor cell line; 6 days culture
Method in brief: as §1

[13] = test system: DU145; details: Homo sapiens, DU-145, 144 h; DU145 tumor cell line; 6 days culture
Method in brief: as §1

[14] = test system: MFM-223; details: Homo sapiens, 144 h; MFM-223 tumor cell line; 6 days culture
Method in brief: as §1

[15] = test system: JHH6; details: 144 h; JHH6 liver cancer cell line; 6 days culture
Method in brief: as §1

[16] = test system: SNU354; details: Homo sapiens, SNU-354, 144 h; SNU354 liver cancer cell line; 6 days culture
Method in brief: as §1

[17] = test system: HLF; details: 144 h; HLF liver cancer cell line; 6 days culture
Method in brief: as §1

[18] = test system: HCCLM3; details: Homo sapiens, 144 h; HCCLM3 tumor cell line; 6 days culture
Method in brief: as §1

[19] = test system: K562; details: Homo sapiens, 144 h; K562 tumor cell line; 6 days culture
Method in brief: as §1

[20] = test system: AN3CA; details: Homo sapiens, AN3-CA, 144 h; AN3CA tumor cell line; 6 days culture
Method in brief: as §1

[21] = test system: KASUMI-1; details: Homo sapiens, 144 h; KASUMI-1 (leukemia cells); 6 days culture
Method in brief: as §1

[22] = test system: Hep3B2.1-7; details: 144 h; Hep3B2.1-7 liver cancer cell line; 6 days culture
Method in brief: as §1

[23] = test system: NCI-H2170; details: Homo sapiens, 144 h; NCI-H2170 tumor cell line; 6 days culture
Method in brief: as §1

[24] = test system: MG63; details: Homo sapiens, MG-63, 144 h; MG63 tumor cell line; 6 days culture
Method in brief: as §1

[25] = test system: SK-HEP-1; details: Homo sapiens, SK-HEP1, 144 h; SK-HEP-1 liver cancer cell line; 6 days culture
Method in brief: as §1

[26] = test system: HUH1; details: Homo sapiens, HuH-1, 144 h; HUH1 liver cancer cell line; 6 days culture
Method in brief: as §1

| IC50 [2] | IC50 [3] | IC50 [4] | IC50 [5] | IC50 [6] | IC50 [7] | IC50 [12] | IC50 [13] | IC50 [16] | IC50 [18] | IC50 [19] | SMILES | IC50 [1] | IC50 [8] | IC50 [9] | IC50 [10] | IC50 [11] | IC50 [14] | IC50 [15] | IC50 [17] | IC50 [20] | also measured |
| --- | --- | --- | --- | --- | --- | --- | --- | --- | --- | --- | --- | --- | --- | --- | --- | --- | --- | --- | --- | --- | --- |
| 0.03 µM | 4.81 µM | 22.3 µM | 10.1 µM | 7.45 µM | 1.35 µM | 6.14 µM | 4.25 µM | 3.59 µM | 8.24 µM | 17.2 µM | Cc1ccc(F)c(NC(=O)Nc2ccc(-c3cccc4[nH]nc(NC(=O)C[C@H](N)C(=O)N[C@@H](CCC(=O)O)C(=O)O)c34)cc2)c1 [Compound 1] | 2.84 µM | 7.29 µM | 3.71 µM | 24.7 µM | 43.6 µM | 3.59 µM | 6.57 µM | 5.24 µM | 0.34 µM | IC50 [21]: 0.02 µM; IC50 [22]: 3.29 µM; IC50 [23]: 5.32 µM; IC50 [24]: 2.34 µM; IC50 [25]: 16.6 µM; IC50 [26]: 4.67 µM |
| 0.07 µM | 11.2 µM | 47.9 µM | 21.5 µM | 11.3 µM | 3.86 µM | 10.4 µM | 9.34 µM | 8.62 µM | 12 µM | 29.5 µM | Cc1ccc(F)c(NC(=O)Nc2ccc(-c3cccc4[nH]nc(NC(=O)C[C@H](N)C(=O)N[C@@H](CCC(=O)N[C@@H](CCC(=O)N[C@@H](CCC(=O)N[C@@H](CCC(=O)O)C(=O)O)C(=O)O)C(=O)O)C(=O)O)c34)cc2)c1 [Compound 2] | 6.47 µM | 19.5 µM | 5.48 µM | 40.1 µM | 88.2 µM | 6.93 µM | 10.9 µM | 10.8 µM | 0.73 µM | IC50 [21]: 0.05 µM; IC50 [22]: 6.32 µM; IC50 [23]: 7.69 µM; IC50 [24]: 5.49 µM; IC50 [25]: 31 µM; IC50 [26]: 7.26 µM |
| 0.19 µM | > 100 µM | > 100 µM | > 100 µM | > 100 µM | 11.5 µM | > 100 µM | > 100 µM | > 100 µM | > 100 µM | > 100 µM | Cc1ccc(F)c(NC(=O)Nc2ccc(-c3cccc4[nH]nc(NC(=O)CCCCCCCCCCCNC(=O)C[C@H](N)C(=O)N[C@@H](CCC(=O)N[C@@H](CCC(=O)N[C@@H](CCC(=O)N[C@@H](CCC(=O)O)C(=O)O)C(=O)O)C(=O)O)C(=O)O)c34)cc2)c1 [Compound 8] | > 100 µM | > 100 µM | > 100 µM | > 100 µM | > 100 µM | > 100 µM | > 100 µM | > 100 µM | 5.68 µM | IC50 [21]: 0.39 µM; IC50 [22]: 80.2 µM; IC50 [23]: 75.3 µM; IC50 [24]: > 100 µM; IC50 [25]: > 100 µM; IC50 [26]: > 100 µM |
| 0.02 µM | 4.39 µM | 20.1 µM | 7.42 µM | 6.93 µM | 0.97 µM | 5.46 µM | 3.62 µM | 3.33 µM | 7.76 µM | 14.6 µM | Cc1ccc(F)c(NC(=O)Nc2ccc(-c3cccc4[nH]nc(NC(=O)C[C@H](N)C(=O)O)c34)cc2)c1 [Compound 10] | 2.16 µM | 5.28 µM | 2.43 µM | 18.5 µM | 36.8 µM | 2.64 µM | 5.38 µM | 4.85 µM | 0.27 µM | IC50 [21]: 0.01 µM; IC50 [22]: 2.43 µM; IC50 [23]: 4.28 µM; IC50 [24]: 1.95 µM; IC50 [25]: 14.9 µM; IC50 [26]: 3.88 µM |
